Target: T1, human PAR4 (Homo sapiens, UniProt Q96RI0)
T1 construct: expressed in transfected cells; host or cells: HEK293 PAR4 Clone 1.2A (BMS Arctic ID 383940)
T1 sequence (Q96RI0 18-385): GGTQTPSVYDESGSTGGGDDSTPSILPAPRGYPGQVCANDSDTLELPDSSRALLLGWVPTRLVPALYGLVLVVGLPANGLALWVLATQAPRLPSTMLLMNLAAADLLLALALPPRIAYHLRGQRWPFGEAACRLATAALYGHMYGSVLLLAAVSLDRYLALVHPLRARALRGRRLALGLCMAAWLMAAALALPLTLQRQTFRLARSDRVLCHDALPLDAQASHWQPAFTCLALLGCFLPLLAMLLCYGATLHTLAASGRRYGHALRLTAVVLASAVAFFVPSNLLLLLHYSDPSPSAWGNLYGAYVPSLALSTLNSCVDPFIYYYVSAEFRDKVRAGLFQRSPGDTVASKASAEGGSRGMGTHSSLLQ
Assay: PAR4 FLIPR assay: antagonism of agonist-peptide-induced calcium mobilization in PAR4-expressing HEK293 cells
Type: cell-based
Settings: H-Ala-Phe(4-F)-[…]NH2-induced intracellular calcium mobilization, 11-point curves

Going from `Cc1cc(-c2nc3c(C)cc(OCCNS(=O)(=O)c4ccc(C(F)(F)F)cc4)cc3s2)c2ncc(OC(F)F)nc2c1` [Example 83, N-(2-(2-(2-(difluoromethoxy)-7-methylquinoxalin-5-yl)-4-methylbenzo[d]thiazol-6-yloxy)ethyl)-4-(trifluoromethyl)benzenesulfonamide] to `Cc1cc(-c2nc3c(C)cc(OCCNS(=O)(=O)c4ccc(Cl)cc4)cc3s2)c2ncc(OC(F)F)nc2c1` [Example 86, 4-chloro N-(2-(2-(2-(difluoromethoxy)-7-methylquinoxalin-5-yl)-4-methylbenzo[d]thiazol-6-yloxy)ethyl)benzenesulfonamide], the IC50 falls from 11 nM to 7.2 nM (1.5-fold).

First: Cc1cc(-c2nc3c(C)cc(OCCNS(=O)(=O)c4ccc(F)cc4F)cc3s2)c2ncc(OC(F)F)nc2c1 [Example 84, N-(2-(2-(2-(difluoromethoxy)-7-methylquinoxalin-5-yl)-4-methylbenzo[d]thiazol-6-yloxy)ethyl)-2,4-difluorobenzenesulfonamide]
Second: Cc1cc(-c2nc3c(C)cc(OCCNS(=O)(=O)c4ccc(F)c(F)c4)cc3s2)c2ncc(OC(F)F)nc2c1 [Example 85, N-(2-(2-(2-(difluoromethoxy)-7-methylquinoxalin-5-yl)-4-methylbenzo[d]thiazol-6-yloxy)ethyl)-3,4-difluorobenzenesulfonamide]
The IC50 of the first is 3.4-fold lower: 2.5 nM for the first, 8.5 nM for the second. The first is the more potent here.

First: COc1cnc2c(-c3nc4c(C)cc(OCCNS(=O)(=O)c5ccc(C)cc5)cc4s3)cc(C)cc2n1 [Example 87, N-(2-(2-(2-methoxy-7-methylquinoxalin-5-yl)-4-methylbenzo[d]thiazol-6-yloxy)ethyl)-4-methylbenzenesulfonamide]
Second: Cc1cc(-c2nc3c(C)cc(OCCNS(=O)(=O)c4ccc(F)cc4)cc3s2)c2ncc(C(C)F)nc2c1 (stereo not shown) [Example 108, 4-fluoro N-(2-(2-(2-(1 fluoroethyl)-7-methylquinoxalin-5-yl)-4-methylbenzo[d]thiazol-6-yloxy)ethyl)benzenesulfonamide]
The IC50 of the first is 550-fold lower: 2 nM for the first, 1100 nM for the second. The first is the more potent here.

Compared with `COc1cnc2c(-c3nc4c(C(F)(F)F)cc(OCCNS(=O)(=O)c5ccc(F)cc5)cc4s3)cc(C)cc2n1` [Example 90, 4-fluoro N-(2-(2-(2-methoxy-7-methylquinoxalin-5-yl)-4-(trifluoromethyl)benzo[d]thiazol-6-yloxy)ethyl)benzenesulfonamide], `COCc1cnc2c(-c3nc4c(Cl)cc(OCCNS(=O)(=O)c5ccc(F)cc5)cc4s3)cc(C)cc2n1` [Example 101, N-(2-(4-chloro-2-(2-(methoxymethyl)-7-methylquinoxalin-5-yl)benzo[d]thiazol-6-yloxy)ethyl)-4-fluorobenzenesulfonamide] is 420-fold lower in IC50: 84 nM for the first, 0.2 nM for the second.

Compared with `Cc1cc(-c2nc3c(C)cc(OCCNS(=O)(=O)c4ccc(F)cc4)cc3s2)c2ncc(C3CC3)nc2c1` [Example 91, N-(2-(2-(2-cyclopropyl-7-methylquinoxalin-5-yl)-4-methylbenzo[d]thiazol-6-yloxy)ethyl)-4-fluorobenzenesulfonamide], `COCc1cnc2c(-c3nc4c(C5CC5)cc(OCCNS(=O)(=O)c5ccc(F)cc5)cc4s3)cc(C)cc2n1` [Example 105, N-(2-(4-cyclopropyl-2-(2-(methoxymethyl)-7-methylquinoxalin-5-yl)benzo[d]thiazol-6-yloxy)ethyl)-4-fluorobenzenesulfonamide] is 7.7-fold lower in IC50: 62 nM for the first, 8.1 nM for the second. The second is the more potent here.

Going from `COCc1cnc2c(-c3nc4c(C)cc(OCCNC(=O)OCc5ccccc5)cc4s3)cc(C)cc2n1` [Example 92, Benzyl 2-(2-(2-(methoxymethyl)-7-methylquinoxalin-5-yl)-4-methylbenzo[d]thiazol-6-yloxy)ethylcarbamate] to `COCc1cnc2c(-c3nc4c(C)cc(OCCNS(=O)(=O)c5ccccc5)cc4s3)cc(C)cc2n1` [Example 95, N-(2-((2-(2-(methoxymethyl)-7-methylquinoxalin-5-yl)-4-methylbenzo[d]thiazol-6-yl)oxy)ethyl)benzenesulfonamide], the IC50 falls from 2 nM to 0.8 nM (2.5-fold). The second is the more potent here.

Going from `COCc1cnc2c(-c3nc4c(Cl)cc(OC)cc4s3)cc(C)cc2n1` [Example 93, 4-chloro-6-methoxy-2-(2-(methoxymethyl)-7-methylquinoxalin-5-yl)benzo[d]thiazole] to `COCc1cnc2c(-c3nc4c(C#N)cc(OC)cc4s3)cc(C)cc2n1` [Example 103, 6-methoxy-2-(2-(methoxymethyl)-7-methylquinoxalin-5-yl)benzo[d]thiazole-4-carbonitrile], the IC50 rises from 0.3 nM to 2.5 nM (8.3-fold).

Going from `COCc1cnc2c(-c3cc4cc(OC)ccc4o3)cc(C)cc2n1` [Example 94, 5-(5-methoxybenzofuran-2-yl)-2-(methoxymethyl)-7-methylquinoxaline] to `COCc1cnc2c(-c3nc4c(Cl)cc(OCCNS(C)(=O)=O)cc4s3)cc(C)cc2n1` [Example 98, N-(2-(4-chloro-2-(2-(methoxymethyl)-7-methylquinoxalin-5-yl)benzo[d]thiazol-6-yloxy)ethyl)methanesulfonamide], the IC50 falls from 1.4 nM to 0.3 nM (4.7-fold).

Compared with `COCc1cnc2c(-c3nc4c(C)cc(OCCNS(=O)(=O)c5ccccc5F)cc4s3)cc(C)cc2n1` [Example 96, 2-fluoro N-(2-(2-(2-(methoxymethyl)-7-methylquinoxalin-5-yl)-4-methylbenzo[d]thiazol-6-yloxy)ethyl)benzenesulfonamide], `COCc1cnc2c(-c3nc4c(Cl)cc(OCCNS(=O)(=O)c5ccccc5F)cc4s3)cc(C)cc2n1` [Example 100, N-(2-(4-chloro-2-(2-(methoxymethyl)-7-methylquinoxalin-5-yl)benzo[d]thiazol-6-yloxy)ethyl)-2-fluorobenzenesulfonamide] is 2.2-fold lower in IC50: 1.1 nM for the first, 0.5 nM for the second.

Compared with `COCc1cnc2c(-c3nc4c(C)cc(OCCNS(=O)(=O)c5cccc(F)c5)cc4s3)cc(C)cc2n1` [Example 97, 3-fluoro N-(2-(2-(2-(methoxymethyl)-7-methylquinoxalin-5-yl)-4-methylbenzo[d]thiazol-6-yloxy)ethyl)benzenesulfonamide], `COCc1cnc2c(-c3nc4c(Cl)cc(OCCNS(=O)(=O)c5cccc(F)c5)cc4s3)cc(C)cc2n1` [Example 102, N-(2-(4-chloro-2-(2-(methoxymethyl)-7-methylquinoxalin-5-yl)benzo[d]thiazol-6-yloxy)ethyl)-3-fluorobenzenesulfonamide] is 1.9-fold lower in IC50: 1.7 nM for the first, 0.9 nM for the second. The second is the more potent here.

Going from `COCc1cnc2c(-c3nc4c(Cl)cc(OCCNS(=O)(=O)c5ccccc5)cc4s3)cc(C)cc2n1` [Example 99, N-(2-(4-chloro-2-(2-(methoxymethyl)-7-methylquinoxalin-5-yl)benzo[d]thiazol-6-yloxy)ethyl)benzenesulfonamide] to `COCc1cnc2c(-c3nc4c(C5CC5)cc(OCCNS(=O)(=O)c5ccccc5)cc4s3)cc(C)cc2n1` [Example 104, N-(2-(4-cyclopropyl-2-(2-(methoxymethyl)-7-methylquinoxalin-5-yl)benzo[d]thiazol-6-yloxy)ethyl)benzenesulfonamide], the IC50 rises from 0.6 nM to 1.7 nM (2.8-fold).

Going from `COCc1cnc2c(-c3nc4ccc(OCCNS(=O)(=O)c5ccccc5)cc4s3)cc(C)cc2n1` [Example 106, N-(2-(2-(2-(methoxymethyl)-7-methylquinoxalin-5-yl)benzo[d]thiazol-6-yloxy)ethyl)benzenesulfonamide] to `COCc1cnc2c(-c3nc4ccc(OCCNS(=O)(=O)c5ccc(F)cc5)cc4s3)cc(C)cc2n1` [Example 107, 4-fluoro N-(2-(2-(2-(methoxymethyl)-7-methylquinoxalin-5-yl)benzo[d]thiazol-6-yloxy)ethyl)benzenesulfonamide], the IC50 rises from 1.6 nM to 2.8 nM (1.7-fold). The first is the more potent here.

Going from `COCc1cnc2c(-c3nc4c(C#N)cc(OCCNS(=O)(=O)c5ccc(F)cc5)cc4s3)cc(C)cc2n1` [Example 109, N-(2-(4-cyano-2-(2-(methoxymethyl)-7-methylquinoxalin-5-yl)benzo[d]thiazol-6-yloxy)ethyl)-4-fluorobenzenesulfonamide] to `Cc1cc(-c2nc3c(C)cc(OCCNS(=O)(=O)c4ccc(F)cc4)cc3s2)c2ncc(COC(F)F)nc2c1` [Example 114, N-(2-(2-(2-((difluoromethoxy)methyl)-7-methylquinoxalin-5-yl)-4-methylbenzo[d]thiazol-6-yloxy)ethyl)-4-fluorobenzenesulfonamide], the IC50 rises from 8.3 nM to 1600 nM (190-fold). The first is the more potent here.

Going from `COc1cnc2c(-c3nc4c(C)cc(OCCOC(=O)Nc5ccccc5)cc4s3)cc(C)cc2n1` [Example 110, 2-(2-(2-methoxy-7-methylquinoxalin-5-yl)-4-methylbenzo[d]thiazol-6-yloxy)ethyl phenylcarbamate] to `COc1cnc2c(-c3nc4c(C)cc(OCCOC(=O)Nc5cccnc5)cc4s3)cc(C)cc2n1` [Example 111, 2-(2-(2-methoxy-7-methylquinoxalin-5-yl)-4-methylbenzo[d]thiazol-6-yloxy)ethyl pyridin-3-ylcarbamate], the IC50 falls from 12 nM to 1.1 nM (11-fold). The second is the more potent here.

First: COc1ccc(NC(=O)OCCOc2cc(C)c3nc(-c4cc(C)cc5nc(OC)cnc45)sc3c2)cn1 [Example 112, 2-(2-(2-methoxy-7-methylquinoxalin-5-yl)-4-methylbenzo[d]thiazol-6-yloxy)ethyl 6-methoxypyridin-3-ylcarbamate]
Second: COc1ccc(NC(=O)OCCOc2ccc3nc(-c4cc(C)cc5nc(OC)cnc45)sc3c2)cn1 [Example 115, 2-(2-(2-methoxy-7-methylquinoxalin-5-yl)benzo[d]thiazol-6-yloxy)ethyl 6-methoxypyridin-3-ylcarbamate]
The IC50 of the first is 1.5-fold higher: 2 nM for the first, 1.3 nM for the second. The second is the more potent here.

Work on `COc1cnc2c(-c3nc4c(C)cc(OCCOC(=O)Nc5ccncc5)cc4s3)cc(C)cc2n1` [Example 113, 2-(2-(2-methoxy-7-methylquinoxalin-5-yl)-4-methylbenzo[d]thiazol-6-yloxy)ethyl pyridin-4-ylcarbamate] yielded an IC50 of 3 nM.
